Assay results: US20150315188A1, “COMPOUNDS AND METHODS FOR TREATMENT OF HYPERTENSION” (MEDIVATION TECHNOLOGIES, INC., priority 2012, published 2015)

How the values were obtained:
Parameters in all cases: purchased Milipore (Millipore)
[1] = target: T1, Human adrenergic α2A receptor (Homo sapiens, UniProt P08913); assay: Radioligand binding, adrenergic α2A (Protocol Group B); conditions: Protocol Group B; for Percentage inhibition of ligand binding, Adrenergic α2A (0.1 μM): 0.1 μM compound; for Percentage inhibition of ligand binding, Adrenergic α2A (0.3 μM): 0.3 μM compound
T1 sequence (P08913 1-465): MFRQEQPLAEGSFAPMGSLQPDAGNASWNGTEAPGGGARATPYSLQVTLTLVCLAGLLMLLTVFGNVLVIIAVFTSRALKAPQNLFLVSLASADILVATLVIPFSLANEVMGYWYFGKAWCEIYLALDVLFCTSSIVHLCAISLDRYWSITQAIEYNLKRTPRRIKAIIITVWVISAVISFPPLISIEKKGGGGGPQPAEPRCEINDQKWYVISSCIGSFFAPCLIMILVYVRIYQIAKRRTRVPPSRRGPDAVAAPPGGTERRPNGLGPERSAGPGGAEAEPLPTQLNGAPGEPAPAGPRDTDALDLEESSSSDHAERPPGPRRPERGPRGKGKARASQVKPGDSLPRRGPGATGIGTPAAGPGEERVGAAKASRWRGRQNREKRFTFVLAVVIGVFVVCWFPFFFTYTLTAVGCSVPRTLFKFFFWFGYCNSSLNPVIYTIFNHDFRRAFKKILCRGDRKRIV
Method in brief: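 Compounds (1% DMSO vehicle, various concentrations) competed against 2 nM [^3H]MK-912 on recombinant receptor membranes for 60 min at 25° C, Tris-HCl pH 7.4 buffer with Mg2+, Ca2+, BSA. Bound radioligand filtered and counted; 10 μM rauwolscine set nonspecific binding. Values: percent inhibition of specific binding or estimated Ki.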

[2] = target: T2, Human adrenergic α2B receptor (Homo sapiens, UniProt P18089); assay: Radioligand binding, adrenergic α2B (Protocol Group B); conditions: Protocol Group B; for Percentage inhibition of ligand binding, Adrenergic α2B (10 nM): 10 nM compound; for Percentage inhibition of ligand binding, Adrenergic α2B (30 nM): 30 nM compound, 0.03 µM; for Percentage inhibition of ligand binding, Adrenergic α2B (0.1 μM): 0.1 μM compound
T2 sequence (P18089 1-450): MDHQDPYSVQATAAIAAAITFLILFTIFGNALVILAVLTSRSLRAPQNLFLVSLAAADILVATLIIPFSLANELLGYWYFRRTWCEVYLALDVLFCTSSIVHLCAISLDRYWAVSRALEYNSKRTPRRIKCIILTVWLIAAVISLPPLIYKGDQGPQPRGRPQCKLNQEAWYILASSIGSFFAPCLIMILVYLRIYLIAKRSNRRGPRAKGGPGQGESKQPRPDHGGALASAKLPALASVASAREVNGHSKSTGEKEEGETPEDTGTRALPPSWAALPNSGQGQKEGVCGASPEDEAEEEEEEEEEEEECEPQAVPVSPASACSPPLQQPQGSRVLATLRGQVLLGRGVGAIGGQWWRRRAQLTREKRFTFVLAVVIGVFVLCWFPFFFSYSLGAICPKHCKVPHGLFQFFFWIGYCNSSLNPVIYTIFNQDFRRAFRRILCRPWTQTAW
Method in brief: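 Compounds at various concentrations in 1% DMSO were tested on recombinant membranes in Tris-HCl pH 7.4 buffer containing MgCl2, CaCl2 and 0.2% BSA.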

[3] = target: T3, Human adrenergic α1B receptor (Homo sapiens, UniProt P35368); assay: Radioligand binding, adrenergic α1B (Protocol Group B); conditions: Protocol Group B; for Percentage inhibition of ligand binding, Adrenergic α1B (0.1 μM): 0.1 μM compound; for Percentage inhibition of ligand binding, Adrenergic α1B (0.3 μM): 0.3 μM compound
T3 sequence (P35368 1-520): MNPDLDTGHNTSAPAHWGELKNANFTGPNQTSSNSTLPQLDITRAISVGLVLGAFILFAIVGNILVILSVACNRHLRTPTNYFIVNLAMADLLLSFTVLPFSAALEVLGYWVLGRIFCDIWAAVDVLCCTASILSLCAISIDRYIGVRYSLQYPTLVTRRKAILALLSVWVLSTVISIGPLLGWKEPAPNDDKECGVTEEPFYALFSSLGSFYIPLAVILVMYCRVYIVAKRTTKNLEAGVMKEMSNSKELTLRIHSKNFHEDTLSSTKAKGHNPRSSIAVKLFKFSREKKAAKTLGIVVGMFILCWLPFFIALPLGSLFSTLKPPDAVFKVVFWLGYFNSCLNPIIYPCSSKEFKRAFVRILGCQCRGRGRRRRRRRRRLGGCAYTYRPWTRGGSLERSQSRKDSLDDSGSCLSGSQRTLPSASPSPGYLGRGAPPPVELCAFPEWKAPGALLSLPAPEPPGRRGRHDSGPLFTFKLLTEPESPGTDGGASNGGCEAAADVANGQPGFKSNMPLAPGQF
Method in brief: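 Values are percent inhibition of specific [3H]prazosin (0.3 nM) binding or estimated Ki, from filtration counting. Human α1B recombinant membranes, Tris-HCl pH 7.4 buffer with MgCl2 and EDTA, 60 min at 25 °C, 1% DMSO vehicle; 10 μM prazosin defined nonspecific binding.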

Structure (SMILES)	Percentage inhibition of ligand binding, Adrenergic α2A (0.1 μM) [1]	Percentage inhibition of ligand binding, Adrenergic α2A (0.3 μM) [1]	Percentage inhibition of ligand binding, Adrenergic α2B (10 nM) ([2]; 0.01 µM)	Percentage inhibition of ligand binding, Adrenergic α2B (30 nM) [2]	Percentage inhibition of ligand binding, Adrenergic α2B (0.1 μM) [2]	Percentage inhibition of ligand binding, Adrenergic α1B (0.1 μM) [3]	Percentage inhibition of ligand binding, Adrenergic α1B (0.3 μM) [3]	Percentage inhibition of ligand binding, Adrenergic α2B (10 nM) [2]
Cc1ccc2c(c1)c1c(n2CC(C)(O)c2ccc(N(C)C)nc2)CCN(C)C1 (single isomer, unassigned) [39b]	6%	5%	5%	20%	32%	10%	10%	–
Cc1cc(C)c2c(c1)c1c(n2CC(C)(O)c2cccnc2)CCN2CCCC12 (single isomer, unassigned) [44c]	1%	4%	−9%	0%	–	7%	4%	–
Cc1cc(C)c2c(c1)c1c(n2CC(C)(O)c2cccnc2)CCN2CCCC12 (single isomer, unassigned) [44d]	−17%	−16%	−17%	−11%	–	−5%	0%	–
Cc1ccc2c(c1)c1c(n2CC(O)c2ccccn2)CC2CCCN2C1 (single isomer, unassigned) [45a]	−1%	12%	−4%	16%	43%	12%	35%	–
Cc1ccc2c(c1)c1c(n2CC(O)c2ccccn2)CC2CCCN2C1 (single isomer, unassigned) [45b]	−3%	9%	4%	7%	23%	18%	52%	–
Cc1ccc2c(c1)c1c(n2CC(O)c2ccccn2)CC2CCCN2C1 (single isomer, unassigned) [45c]	0%	−11%	11%	4%	19%	−5%	3%	–
Cc1ccc2c(c1)c1c(n2CC(O)c2ccccn2)CC2CCCN2C1 (single isomer, unassigned) [45d]	−7%	−2%	−10%	0%	34%	4%	18%	–
Cc1ccc2c(c1)c1c(n2CC(C)(O)c2cncc(F)c2)CCN(C)C1 (single isomer, unassigned) [46a]	20%	35%	33%	60%	82%	6%	27%	–
Cc1ccc2c(c1)c1c(n2CC(C)(O)c2cncc(F)c2)CCN(C)C1 (single isomer, unassigned) [46b]	−1%	3%	0%	15%	37%	0%	10%	–
Cc1cc2c3c(n(CC(C)(O)c4ccncc4)c2cc1Cl)CCN1CCCC31 (single isomer, unassigned) [50c]	22%	49%	15%	42%	91%	19%	43%	–
Cc1cc2c3c(n(CC(C)(O)c4ccncc4)c2cc1Cl)CCN1CCCC31 (single isomer, unassigned) [50d]	−9%	−4%	−8%	−2%	13%	−8%	4%	–
CC(O)(Cn1c2c(c3cc(Cl)cc(F)c31)C1CCCN1CC2)c1ccncc1 (single isomer, unassigned) [52c]	7%	12%	–	11%	10%	−6%	0%	9%
